From patent US20060134048A1, “Reduction of hair growth” (priority 2004, published 2006) come the findings set out here.

Each structure is given as a SMILES string.

Experiment [1] has as its system Human hair follicles. In words: Human hair follicle growth assay. The format is cell-based. The following applies: 24 hours pre-incubation with 0.1 mM caffeine, then laser 0.75W for 100 msec; hair shaft growth after four to six days.
Experimental: Human Hair Follicle Growth Assay:
Human hair follicles in growth phase (anagen) were isolated from face-lift tissue (obtained from plastic surgeons) under dissecting scope using a scalpel and watchmakers forceps. The skin was sliced into thin strips exposing 2-3 rows of follicles that could readily be dissected. Follicles were placed into 0.5 ml William's E medium (Life Technologies, Gaithersburg, Md.) supplemented with 2 mM L-glutamine, 10 μg/ml insulin, 10 ng/ml hydrocortisone, 100 units of penicillin, 0.1 mg/ml streptomycin and 0.25 μg/ml amphotericin B. The follicles were incubated in 24-well plates (1 follicle/well) at 37° C. in an atmosphere of 5% CO2 and 95% air. The HSP inhibitor or compound that promotes apoptosis is dissolved into dimethyl sulfoxide as 100-fold stock solution. […] The length of hair follicle was assessed using an image analysis software system. The growth of hair fiber was calculated by the subtracting the follicle length on day 0 from that determined on day 7.
Hair follicles were pre-incubated for 24 hours with 0.1 mM concentration of caffeine, and then some of the follicles were laser treated at 0.75W for 100 msec using a Coherent diode laser system. The length of each follicle was measured and the follicles then were placed in a 37° C. incubator for four to six days. Following incubation the hair shaft growth was measured.
Experiment [2] has as its system hamster flank organs. In words: Golden Syrian Hamster assay. It is filed as in vivo, Golden Syrian hamsters.
Experimental: To evaluate the effectiveness of a composition in reducing hair growth (including when used in conjunction with heating), the flank organs of each of a group of hamsters are depilated by applying a thioglycolate based chemical depilatory (Surgex) and/or shaved. To one organ of each animal 10 μl. of vehicle alone once a day is applied, while to the other organ of each animal an equal amount of vehicle containing the HSP inhibitor or compound that promotes apoptosis under evaluation is applied. After three weeks of topical applications (one application per day for five days a week), with heating at a selected time(s) if the composition is used in conjunction with heating) the flank organs are shaved and the amount of recovered hair (hair mass) from each is weighed. Percent-reduction of hair growth is calculated by subtracting the hair mass (mg) value of the test compound treated side from the hair mass value of the vehicle treated side; the delta value obtained is then divided by the hair mass value of the vehicle treated side, and the resultant number is multiplied by 100. A composition including a vehicle 15% DMSO, 65% ethanol, 10% propylene glycol, and 10% di-propylene glycol and 5% quercetin by weight was tested in the Golden Syrian Hamster assay. […]

As for `Cn1c(=O)c2c(ncn2C)n(C)c1=O` [caffeine], in experiment [1], the “reduction in hair growth compared with the control group” value is “significant reduction in hair growth”. `O=c1c(O)c(-c2ccc(O)c(O)c2)oc2cc(O)cc(O)c12` [quercetin]: the hair growth inhibition in experiment [2] (5% quercetin for four days prior to 15W/0.75 sec laser, compared to flank organs given the same laser pulse without quercetin pretreatment) was 36%; in experiment [2] (5% quercetin topical only, three weeks, compared to vehicle control flank organs) it was 15%.
